Laboratory results: article doi:10.1101/2023.06.27.546672v1 (biorxiv, 2023)

Target: T1, apo-sMlaD (Escherichia coli, UniProt P64604)
T1 sequence (P64604 29-183 limits assumed): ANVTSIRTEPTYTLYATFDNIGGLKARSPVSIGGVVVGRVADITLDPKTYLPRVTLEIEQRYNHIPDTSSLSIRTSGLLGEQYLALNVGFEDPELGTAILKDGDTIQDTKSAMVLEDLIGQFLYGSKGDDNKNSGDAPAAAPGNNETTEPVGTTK
Test: isothermal titration calorimetry
Type: binding

Kd [µM] | Structure (SMILES)
61.6 ± 15.6 | C[C@H](CCC(=O)O)[C@H]1CC[C@H]2[C@@H]3[C@H](O)C[C@@H]4C[C@H](O)CC[C@]4(C)[C@H]3CC[C@]12C [CDOC]
~100 | C[C@H](CCC(=O)O)[C@H]1CC[C@H]2[C@@H]3CC[C@@H]4C[C@H](O)CC[C@]4(C)[C@H]3C[C@H](O)[C@]12C [DOC]
